From patent publication US11059778B2, “Cannabinoid receptor CB2 ligand 4-(aminomethyl)-N, N-dialkylanilines” (UNIVERSITY OF PITTSBURGH—OF THE COMMONWEALTH SYSTEM OF …, priority 2015, dated 2021)
pKi: −log10 of the molar value.

Biological target: T1, human CB2 receptors (Homo sapiens, UniProt P34972)
T1 construct: expressed in transfected cells
Assay: [3H]CP-55,940 radioligand competition binding assay, CB2
Details: for pKi: CHO cell membranes, [3H]CP-55,940 displacement
Protocol: Binding assay. The bioassay is carried out using the Perkin Elmer 96-well Top Counter. This bioassay is also known as a competition binding assay and the biological evaluation is to determine the CB receptor binding affinity (Ki) of the screened ligands by displacing [^3H]-CP-55940 (or other radioligands). The brief procedure is given below.
Perkin Elmer 96-well TopCounter is used at PMLSC and in our laboratory to determine the CB receptor binding affinity (Ki) of the in-silico screened ligands by displacing [^3H]-CP-55,940 (or other radioligands). In competition binding experiments, the tested compound dilutions are carried out in triplicate in TME buffer (25 mM Tris, 5 mM MgCl2, 1 mM EDTA) containing 0.1% (w/v) fatty acid free bovine serum albumin (BSA), pH 7.4. Various concentrations of the tested compound are added in the same volume to 0.5 nM [^3H]CP-55,940. TME buffer and cell membrane preparations expressing CB receptors (2.5 μg per well) are added to a final volume of 200 μL. For the saturation binding experiments, varying concentrations of [^3H]CP-55,940 (0.05-1.5 nM) with or without 2 μM of unlabeled ligands (CP-55,940 or WIN-55,212-2) are incubated with the receptor membrane preparations to determine Kd and nonspecific binding. After the binding suspensions are incubated at 30° C. for 1 hr, the reaction is terminated by rapid filtration through microfiltration plates coated with 0.5% polyethylenimine (Unifilter GF/B filterplate, PerkinElmer) followed by 5 washes with ice cold TME buffer containing 0.5% BSA on a Packard Filtermate Harvester (PerkinElmer). The plates are then dried overnight and 30 μl MicroScint 0 scintillation cocktail are added to each well of the dried filter plates. Then the bound radioactivity is counted using a Perkin Elmer 96-well TopCounter. The Ki is calculated by using nonlinear regression analysis (Prism 5; GraphPad Software Inc., San Diego, Calif.), with the Kd values for [^3H]CP-55,940 determined from saturation binding experiments. This assay is used for determining binding affinity parameters (Ki) of ligand-receptor interactions for the CB receptor.
The affinities of the synthesized ligands were determined in radioligand binding studies at human CB1 and CB2 receptors using [3H](—)-cis-3-[2-hydroxy-4-(1,1 dimethylheptyl)phenyl]-trans-4-(3-hydroxypropyl) cyclohexanol (CP55,940) as a CB receptor radioligand. As a source for human CB1 and CB2 receptors, membrane preparations of Chinese hamster ovary (CHO) cells stably expressing the respective receptor subtype were utilized (50 μg of protein/vial). CB2 selective ligand SR144528 (CB2 inverse agonist) and CB1 ligand SR141716 (CB1 inverse agonist) were used as positive controls, respectively, along with the tested compounds in bioassays experiments. Only compounds with high CB2 receptor binding potency was chosen to carry out the CB1 binding assay. CB ligand competition binding assay was carried out as described previously in Gertsch, J., et al., Beta-caryophyllene is a dietary cannabinoid. Proc Natl Acad Sci USA 2008, 105 (26), 9099-104. Briefly, non-radioactive (or cold) ligands (synthesized derivatives and reference ligands) were diluted in a binding buffer (50 mM Tris-HCl (pH 7.4), 5 mM MgC12, 2.5 mM EGTA, and 0.1% (w/v) fatty acid free BSA), supplemented with 10% dimethyl sulfoxide and 0.4% methyl cellulose. Each assay plate well contained a total of 200 μL of reaction mixture composed of 5 μg of CB1 (or 2.5 μg CB2) membrane protein, labeled [3H]-CP-55,940 ligand at a final concentration of 2.5 nM, and the unlabeled ligand at its varying dilutions as stated above. Plates were incubated at 30° C. for 1 hour with gentle shaking.
The reaction was terminated by rapid filtration through Unifilter GF/B filter plates using a Unifilter Cell Harvester (PerkinElmer). After the plate was allowed to dry overnight, 30 μL MicroScint-0 cocktail (PerkinElmer) was added to each well, and the radioactivity was counted using a PerkinElmer TopCounter. […]

T1 sequence (P34972 whole entry): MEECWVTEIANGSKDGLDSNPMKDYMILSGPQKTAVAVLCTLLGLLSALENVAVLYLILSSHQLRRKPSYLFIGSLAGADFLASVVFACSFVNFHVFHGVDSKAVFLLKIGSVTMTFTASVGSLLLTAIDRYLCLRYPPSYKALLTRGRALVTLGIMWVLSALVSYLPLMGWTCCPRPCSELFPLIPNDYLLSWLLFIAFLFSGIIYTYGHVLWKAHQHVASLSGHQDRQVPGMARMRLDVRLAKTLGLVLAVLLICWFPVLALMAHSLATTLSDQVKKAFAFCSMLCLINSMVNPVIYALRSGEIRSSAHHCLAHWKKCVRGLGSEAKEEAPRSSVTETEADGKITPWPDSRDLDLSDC

Row | Compound | SI: selectivity index for CB2, calculated as Ki(CB1)/Ki(CB2) ratio | pKi
1 | CCN(CC)c1ccc(CN(Cc2cc(OC)c(OC)c(OC)c2)C(=O)c2cccs2)cc1 [Compound 11, N-(4-(diethylamino)benzyl)-N-(3,4,5-trimethoxybenzyl)thiophene-2-carboxamide] | 31 | 6.97
2 | CCN(CC)c1ccc(CN(Cc2cc(OC)c(OC)c(OC)c2)S(=O)(=O)/C=C/c2ccccc2)cc1 [Compound 15, (E)-N-(4-(diethylamino)benzyl)-2-phenyl-N-(3,4,5-trimethoxybenzyl)ethene-1-sulfonamidebenzenesulfonamide] | 145 | 6.86
3 | CCN(CC)c1ccc(CN(Cc2cc(OC)c(OC)c(OC)c2)S(=O)(=O)c2ccc(C=O)cc2)cc1 [Compound 18, N-(4-(diethylamino)benzyl)-4-formyl-N-(3,4,5-trimethoxybenzyl)benzenesulfonamide] | 9 | 6.62
